Literature values as cited in patent US11331266B1, “Antioxidant free, norepinephrine bitartrate injection in amber glass vials” (Medefil, Inc., priority 2020, dated 2022).

Details: literature, Int. J. Toxicol. 2002; 21 Suppl 2:19-94

For COc1ccc(O)c(C(C)(C)C)c1 [butylated hydroxyl anisole], the organ damage is listed as “some renal and hepatic damage”.
